Results published in PMC6270338, “Diterpenylquinone Hybrids: Synthesis and Assessment of Gastroprotective Mechanisms of Action in Human Cells” (Molecules, 2013).

Legend:
[1] = Cytotoxicity, neutral red uptake assay, MRC-5; assay type: cell-based; conditions: human, MRC-5 lung fibroblasts, confluent monolayer, confluent MRC-5, 24 h, read-out: IC50 ± SD, cytotoxicity MRC-5
Description: (§1) Human lung fibroblasts MRC-5 (ATCC CCL-171) were grown in minimum essential Eagle medium (MEM) with Earles’s salts and 2 mM L-glutamine (Sigma-Aldrich Co.). Human epithelial gastric cells AGS (ATCC CRL-1739) were grown in Ham F-12 medium containing 1 mM L-glutamine. Both media were supplemented with 1.5 g/L sodium bicarbonate (Sigma-Aldrich Co.), 10% heat-inactivated fetal bovine serum (FBS), 100 IU/mL penicillin and 100 µg/mL streptomycin.Both cell lines were grown as monolayers in a humidified incubator with 5% CO2 in air at 37 °C. Culture media, antibiotics and FBS were obtained from Invitrogen Corp.
(§2) Cytotoxicity values were required as a reference to determine the working concentrations in the subsequent experiments. Briefly, confluent cultures of MRC-5 and AGS cells were treated during 24 h with medium containing the compounds at concentrations ranging from 0 up to 1,000 µM. The products were first dissolved in DMSO (1% final concentration) and then in the corresponding culture medium supplemented with 2% FBS. Untreated cells were used as controls. Cell viability was determined at the end of the incubation by means of the neutral red uptake (NRU) assay. Lansoprazole (Sigma-Aldrich Co., min. 98% by TLC) was used as reference compound.

[2] = Cytotoxicity, neutral red uptake assay, AGS; assay type: cell-based; conditions: human, AGS gastric epithelial cells, confluent monolayer, read-out: IC50 ± SD, cytotoxicity AGS
Description: as §1, §2

AGS cells [3] = experiment: Cellular reduced glutathione (GSH) content of AGS cells; assay type: cell-based, human; conditions: 4 h; for GSH: post-confluent AGS, control 13.6 ± 0.7
Description: Untreated cells were used as controls. […] After incubation, the GSH content was determined using a colorimetric kit (BioAssays Systems, Hayward, CA, USA). Results are expressed as nanomol of soluble reduced sulfhydryls/10^6 cells.

[4] = test system: human erythrocyte membranes; experiment: Inhibition of lipoperoxidation in erythrocyte membranes; assay type: biochemical
[5] = test system: human erythrocyte membranes; experiment: as above; assay type: biochemical; conditions: at 100 µg/mL
Description: The inhibition of lipid peroxidation was determined using human erythrocyte membranes. The compounds were tested at 100 µg/mL.

AGS cells [6] = experiment: Prostaglandin E2 (PGE2) content of AGS cells; assay type: cell-based, human; conditions: 1 h; for PGE2: post-confluent AGS, control 52 ± 5
Description: One day after confluence, AGS cells were treated for 1 h with the compounds at 1/2 and 1/4 of the respective IC50 values. A control with medium only was included. Indomethacin (100 μM) was used as standard inhibitor of prostaglandin synthesis (Sigma-Aldrich Co., min. 99% by TLC). After incubation, PGE2 content was determined by means of a specific enzyme immunoassay kit (R & D Systems KGE004B, Minneapolis, MN, USA) and values were calculated according to the manufacturer instructions. Results are expressed as pg/well.

AGS cells [7] = experiment: Sodium taurocholate (NaT)-induced damage to AGS cells; assay type: cell-based, human; conditions: 60 min pre-treatment, then 10 mM NaT 30 min
Description: The effect of sodium taurocholate (NaT) on cell viability was determined according to [15]. […] Then, 10 mM NaT was added to all wells for 30 min. Untreated cells were used as controls. […] After incubation, the NRU assay was carried out.

`COC(=O)[C@@]1(C)CCC[C@@]2(C)C1CC[C@H](C)[C@@H]2CC[C@@H](C)CC(=O)OC1=C(CC=C(C)C)C(=O)c2ccccc2C1=O` (stereo partly drawn) [Compound 14, Lapachoyl 17β-dihydrojunicedrate methyl ester] gave an IC50 at 24 h [1] of 727 ± 48 µM, an IC50 at 24 h [2] of 916 ± 54 µM and a GSH (AGS cells [3]; 115 µM) of 14.4 ± 0.5 nmol/10^6 cells. For the same compound, the GSH (AGS cells [3]; 229 µM) was 12.7 ± 0.4 nmol/10^6 cells and the “IC50, inhibition of the lipoperoxidation” value [4] was “IC50 19.7 ± 1.4 µg/mL”.

For `CC(CCC1C(C)CCC2C(C)(C(=O)O)CCCC12C)CC(=O)O` (stereo not drawn) [Compound 6, 17β-Dihydrojunicedric acid], the IC50 at 24 h [1] was 163 ± 5 µM, the IC50 at 24 h [2] was 283 ± 17 µM and the activation at 37 µM (AGS cells [3]; Homo sapiens, AGS, 37 µM, read-out: increase of GSH content compared to untreated controls) was 43%. For the same compound, the activation at 71 µM (AGS cells [3]; Homo sapiens, AGS, 71 µM, read-out: increase of GSH content compared to untreated controls) was 60%, the GSH (AGS cells [3]; 37 µM) was “* 19.5 ± 0.9 nmol/10^6 cells” and the GSH (AGS cells [3]; 71 µM) was “** 21.7 ± 1.3 nmol/10^6 cells”. For the same compound, the “% Inhibition of the lipoperoxidation” value [5] was 30%.

Work on `CC(C)=CCC1=C(OC(=O)C[C@H](C)CC[C@H]2[C@@H](C)CCC3[C@]2(C)CCC[C@]3(C)C(=O)O)C(=O)C2=C(CCCC2)C1=O` (stereo partly drawn) [Compound 17, Dihydroprenyl-5,6,7,8-tetrahydrolapachoyl 17β-dihydrojunicedrate] yielded an IC50 at 24 h [1] of 44 ± 4 µM, an IC50 at 24 h [2] of 60 ± 5 µM and an activation at 7.5 µM (AGS cells [3]; Homo sapiens, AGS, 7.5 µM, read-out: increase of GSH content compared to untreated controls) of 89%. The activation at 15 µM (AGS cells [3]; Homo sapiens, AGS, 15 µM, read-out: increase of GSH content compared to untreated controls) was 51%, the GSH (AGS cells [3]; 7.5 µM) was “** 25.8 ± 1.6 nmol/10^6 cells” and the GSH (AGS cells [3]; 15 µM) was “** 20.5 ± 1.0 nmol/10^6 cells”. For the same compound, the “% Inhibition of the lipoperoxidation” value [5] was 48%.

In the case of `C=C1CCC2[C@](C)(CCC[C@]2(C)C(=O)O)[C@H]1CC[C@@H](C)CC(=O)O` (stereo partly shown) [Compound 4, Junicedric acid], the IC50 at 24 h [1] is reported as 439 ± 26 µM, the IC50 at 24 h [2] is reported as 383 ± 23 µM and the GSH (AGS cells [3]; 48 µM) is reported as “* 18.4 ± 1.1 nmol/10^6 cells”. For the same compound, the GSH (AGS cells [3]; 96 µM) was “* 17.2 ± 1.0 nmol/10^6 cells” and the “% Inhibition of the lipoperoxidation” value [5] was 25%.

With `CC(C)=CCC1=C(O)C(=O)c2ccccc2C1=O` [Compound 1, Lapachol] the IC50 at 24 h [1] was greater than 1000 µM, the IC50 at 24 h [2] was 571 ± 28 µM and the fold induction at 143 µM (AGS cells [6]; Homo sapiens, AGS, 143 µM, read-out: increase in PGE2 content) was 2.3. For the same compound, the fold induction at 286 µM (AGS cells [6]; Homo sapiens, AGS, 286 µM, read-out: increase in PGE2 content) was 2.5, the PGE2 (AGS cells [6]; 143 µM) was 117 ± 10 pg/mL and the PGE2 (AGS cells [6]; 286 µM) was 132 ± 12 pg/mL. For the same compound, the GSH (AGS cells [3]; 72 µM) was 13.9 ± 0.9 nmol/10^6 cells, the GSH (AGS cells [3]; 143 µM) was 14.1 ± 0.8 nmol/10^6 cells and the “% Inhibition of the lipoperoxidation” value [5] was 38%.

Work on `C=C1CCC2[C@](C)(CCC[C@]2(C)C(=O)OC)[C@H]1CC[C@@H](C)CC(=O)OC1=C(CCC(C)C)C(=O)C2=C(CCCC2)C1=O` (stereo partly shown) [Compound 12, Dihydroprenyl-5,6,7,8-tetrahydrolapachoyl junicedrate methyl ester] yielded an IC50 at 24 h [1] of 667 ± 40 µM, an IC50 at 24 h [2] greater than 1000 µM and a GSH (AGS cells [3]; 125 µM) of 13.7 ± 1.0 nmol/10^6 cells. For the same compound, the GSH (AGS cells [3]; 250 µM) was 13.9 ± 0.8 nmol/10^6 cells and the “% Inhibition of the lipoperoxidation” value [5] was 37%.

With `O.Oc1cc(O)c2c(c1)O[C@H](c1ccc(O)c(O)c1)[C@@H](O)C2` [Catechin, reference compound] the “IC50, inhibition of the lipoperoxidation” value [4] was “IC50 75.4 ± 6.0 µg/mL”.

With `CC(=O)N[C@@H](CS)C(=O)O` [NAC, N-acetyl-L-cysteine, reference compound] the activation at 750 µM (AGS cells [3]; Homo sapiens, AGS, 750 µM, read-out: increase of GSH content compared to untreated controls) was 30% and the GSH (AGS cells [3]; 750 µM) was “* 17.7 ± 1.4 nmol/10^6 cells”.

In the case of `CC(C)CCC1=C(O)C(=O)c2ccccc2C1=O` [Compound 2, Dihydroprenyl lapachol], the IC50 at 24 h [1] is reported as 611 ± 42 µM, the IC50 at 24 h [2] is reported as 292 ± 12 µM and the “reduction in cell viability, NaT-induced damage” value (shortened to “reduction in cell viability”) (AGS cells [7]; 37 µM) is reported as 23%. For the same compound, the “reduction in cell viability” value (AGS cells [7]; 73 µM) was 23%, the “reduction in cell viability” value (AGS cells [7]; 146 µM) was 27% and the GSH (AGS cells [3]; 37 µM) was 13.6 ± 0.7 nmol/10^6 cells. The GSH (AGS cells [3]; 73 µM) was 13.8 ± 0.7 nmol/10^6 cells and the “IC50, inhibition of the lipoperoxidation” value [4] was “IC50 25.4 ± 2.4 µg/mL”.

Work on `CC(C)CCC1=C(O)C(=O)C2=C(CCCC2)C1=O` [Compound 3, Dihydroprenyl-5,6,7,8-tetrahydrolapachol] yielded an IC50 at 24 h [1] of 307 ± 22 µM, an IC50 at 24 h [2] of 87 ± 4 µM and a GSH (AGS cells [3]; 11 µM) of 14.3 ± 0.7 nmol/10^6 cells. The GSH (AGS cells [3]; 22 µM) was 13.0 ± 0.5 nmol/10^6 cells and the “IC50, inhibition of the lipoperoxidation” value [4] was “IC50 33.3 ± 2.3 µg/mL”.

`Cc1c(OCC(F)(F)F)ccnc1C[S+]([O-])c1nc2ccccc2[nH]1` (stereo not shown) [Lansoprazole, reference compound] showed an IC50 at 24 h [1] of 316 ± 11 µM and an IC50 at 24 h [2] of 168 ± 8 µM.

With Sucralfate [reference compound] the “reduction in cell viability” value (AGS cells [7]; 4 mg/mL (580 µM)) was 35%.

With `CC(C)CCC1=C(OC(=O)C[C@H](C)CC[C@H]2[C@@H](C)CCC3[C@]2(C)CCC[C@]3(C)C(=O)O)C(=O)c2ccccc2C1=O` (stereo partly drawn) [Compound 15, Dihydroprenyl lapachol 17β-dihydrojunicedrate] the IC50 at 24 h [1] was greater than 1000 µM, the IC50 at 24 h [2] was greater than 1000 µM and the “reduction in cell viability” value (AGS cells [7]; 125 µM) was 27%. The “reduction in cell viability” value (AGS cells [7]; 250 µM) was 27%, the “reduction in cell viability” value (AGS cells [7]; 500 µM) was 21% and the fold induction at 250 µM (AGS cells [6]; Homo sapiens, AGS, 250 µM, read-out: increase in PGE2 content) was 5.4. It also gave a fold induction at 500 µM (AGS cells [6]; Homo sapiens, AGS, 500 µM, read-out: increase in PGE2 content) of 7.2, a PGE2 (AGS cells [6]; 250 µM) of 279 ± 20 pg/mL and a PGE2 (AGS cells [6]; 500 µM) of 372 ± 25 pg/mL. For the same compound, the activation at 125 µM (AGS cells [3]; Homo sapiens, AGS, 125 µM, read-out: increase of GSH content compared to untreated controls) was 31%, the activation at 250 µM (AGS cells [3]; Homo sapiens, AGS, 250 µM, read-out: increase of GSH content compared to untreated controls) was 35% and the GSH (AGS cells [3]; 125 µM) was “* 17.8 ± 0.9 nmol/10^6 cells”. The GSH (AGS cells [3]; 250 µM) was “* 18.4 ± 1.2 nmol/10^6 cells” and the “IC50, inhibition of the lipoperoxidation” value [4] was “IC50 25.3 ± 4.1 µg/mL”.

With `COc1ccc2c(c1)c(CC(=O)O)c(C)n2C(=O)c1ccc(Cl)cc1` [Indomethacin, reference compound] the PGE2 (AGS cells [6]; 100 µM) was “Not detected”.

For `C=C1CCC2[C@](C)(CCC[C@]2(C)C(=O)O)[C@H]1CC[C@@H](C)CC(=O)OC1=C(CC=C(C)C)C(=O)c2ccccc2C1=O` (stereo partly shown) [Compound 7, Lapachoyl junicedrate], the IC50 at 24 h [1] was 221 ± 13 µM, the IC50 at 24 h [2] was 143 ± 6 µM and the activation at 18 µM (AGS cells [3]; Homo sapiens, AGS, 18 µM, read-out: increase of GSH content compared to untreated controls) was 18%. For the same compound, the activation at 36 µM (AGS cells [3]; Homo sapiens, AGS, 36 µM, read-out: increase of GSH content compared to untreated controls) was 23%, the GSH (AGS cells [3]; 18 µM) was 16.1 ± 0.9 nmol/10^6 cells and the GSH (AGS cells [3]; 36 µM) was “* 16.7 ± 0.7 nmol/10^6 cells”. The “% Inhibition of the lipoperoxidation” value [5] was 10%.
